In series [1] the target is T1, Ba/F3 cells expressing human wildtype FLT3 (Homo sapiens, UniProt P36888).
T1 sequence (P36888 27-993): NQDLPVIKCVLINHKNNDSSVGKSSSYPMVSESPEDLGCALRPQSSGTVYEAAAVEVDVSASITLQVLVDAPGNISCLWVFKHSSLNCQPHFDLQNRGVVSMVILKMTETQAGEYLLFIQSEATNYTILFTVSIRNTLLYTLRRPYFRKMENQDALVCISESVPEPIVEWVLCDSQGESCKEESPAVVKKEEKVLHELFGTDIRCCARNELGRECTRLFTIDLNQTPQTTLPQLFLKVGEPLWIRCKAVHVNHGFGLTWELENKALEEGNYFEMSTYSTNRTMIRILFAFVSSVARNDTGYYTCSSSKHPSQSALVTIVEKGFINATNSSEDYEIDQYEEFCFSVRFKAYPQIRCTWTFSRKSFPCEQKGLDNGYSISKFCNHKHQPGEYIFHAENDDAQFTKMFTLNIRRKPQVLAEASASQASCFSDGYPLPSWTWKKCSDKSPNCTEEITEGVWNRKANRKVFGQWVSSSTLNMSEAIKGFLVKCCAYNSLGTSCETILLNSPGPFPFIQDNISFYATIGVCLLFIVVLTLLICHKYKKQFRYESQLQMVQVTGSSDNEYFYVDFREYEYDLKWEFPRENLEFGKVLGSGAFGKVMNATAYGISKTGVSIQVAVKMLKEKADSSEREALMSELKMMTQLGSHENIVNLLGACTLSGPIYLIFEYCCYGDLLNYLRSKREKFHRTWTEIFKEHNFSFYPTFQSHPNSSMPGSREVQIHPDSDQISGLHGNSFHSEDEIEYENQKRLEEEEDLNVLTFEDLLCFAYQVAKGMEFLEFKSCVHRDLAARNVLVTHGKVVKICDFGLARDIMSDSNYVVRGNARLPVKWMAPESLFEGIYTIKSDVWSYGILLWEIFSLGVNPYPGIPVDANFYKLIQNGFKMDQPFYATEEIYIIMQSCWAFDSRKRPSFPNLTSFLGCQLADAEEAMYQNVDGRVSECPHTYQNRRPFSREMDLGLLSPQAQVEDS
Briefly: Cytotoxicity in Ba/F3 hFLT3 wt, 72 h. The following applies: Ba/F3 cells expressing the empty vector or human wild type FLT3. The method, then: (§1) (A) Schematic process of P5 conjugation technology via disulfite bond reduction and Staudinger induced Michael addition. Final ADC consists of monoclonal antibody (20D9 or IgG1 antibody) coupled to monomethyl-auristatin F toxin. Figure was created with BioRender.com. (B-E,G) Assessment of cytotoxicity of ADCs in different Ba/F3 cell lines. Viability was determined after 72 h treatment with different concentrations by trypan blue exclusion count and compared to untreated control. Mean±s.d. of n=3 biological replicates. […] Calculation based on data from FIGS. 2E and 2G calculated by GraphPad Prism. Unpaired, two-tailed Student's t-test; *p<0.05. Each dot represents a replicate, horizontal line indicates mean.
(§2) AML cells were treated once (d0) and viability was determined after 96h using Resazurin solution (50 µM final concentration, 4 h incubation) (R12204, Thermo Fisher Scientific). For Ba/F3 cell assays, cells were treated once (d0) and viable cells were counted after 72 h on Vi-Cell Cell Viability Analyzer (Beckman Coulter, Krefeld, Germany). Calculation of IC50 values were performed using GraphPad Prism version 6.07 (GraphPad Software, La Jolla, CA, USA).

The subject of series [2] is FLT3 cell surface expression in MOLM-13 cells. Briefly: FLT3 cell surface expression in MOLM-13 after kinase inhibitors, flow cytometry. The following applies: 6, 24, 48 and 72 h incubation. The format is cell-based, human. The method, then: Cells were analyzed in flow cytometry after treatment. Dotted line represents MFI ratio of untreated cells. Mean±s.d. of n=2 is depicted. […] Grey triangles indicate increasing drug concentrations. […] Mean±standard deviation is depicted.
(A flow cytometer gives signals particle by particle.)

For the next series, the system named is MOLM-13 cells. The experiment in a line: Cytotoxicity in MOLM-13, 96 h resazurin. It counts as cell-based, human. The source says: (A) Correlation of MFI of CD64 cell surface expression and MFI of FLT3 cell surface expression of myeloid human cell lines measure in flow cytometry. Expression data presented in Supplementary FIGS. 4A and B. Black line indicates simple linear regression with error interval. r=Pearson correlation coefficient; r^2=Coefficient of determination; p=p value from two tailed test with confidence interval of 95%. MFI=mean fluorescence intensity. (B,C,E,F) Assessment of cytotoxicity of ADCs in different human cell lines. Viability was determined after 96h treatment with different concentrations of ADCs by resazurin fluorescence and normalized to untreated control. Dashed line indicates 100 ng/ml drug concentration. Mean±s.d. of n=3 biological replicates. […] Black line indicates simple linear regression with error interval. (E) Treatment of FLT3 positive human cell lines with IgG1-ADC.
Background: The colour change of resazurin is a common sign of viable cells or microbes.

A further series deals with MOLM-13 xenograft. Briefly: MOLM-13 xenograft in NSG mice, bioluminescence imaging. It counts as in vivo. The following applies: 3 mg/kg; Q1W×2.
The subject of series [3] is Ba/F3-pMIY-CD64 expressing cells. Briefly: Cytotoxicity in Ba/F3-pMIY-CD64, 72 h. It counts as cell-based, human. Here is the method: as §1, §2
In series [4] the test system is Ba/F3 cells expressing both FLT3 and CD64. The experiment in a line: Cytotoxicity in Ba/F3-CD64-FLT3, 72 h. The format is cell-based, human. Here is the method: as §1, §2
For the next series, the system named is healthy CD34+ BM cells. The conditions noted are these: 1 μg/ml.
Series [5] concerns CD34 positive healthy bone marrow (BM) cells. The experiment in a line: Differentiation assessment of healthy CD34+ cells. The following applies: 1 μg/ml.
From the text: (§3) (D) Differentiation assessment after staining to differentiation markers. CMP: common myeloid GMP: progenitors; granulocyte-monocyte progenitors; MEP: megakaryocyte/erythroid progenitors; MLP: multilymphoid progenitors; MPP: multipotent progenitors; hematopoietic stem cells (HSC). (E) Assessment of clonogenic capacity of healthy CD34+ BM cells. […] After 14 days, colonies were counted. GEMM: granulocyte, erythrocyte, macrophage, megakaryocyte. GM: granulocyte, macrophage. M: macrophage. G: granulocyte. E: erythrocyte. BFU-E: burst-forming unit erythrocyte. CFU: colony forming unit. 2way ANOVA; *p<0.05; Mean±s.d. of n=5.
Series [6] has the same test system. The experiment in a line: Viability of healthy CD34+ bone marrow cells, Annexin V/PI, 4 days. The following applies: 1000 ng/ml.
From the text: (C) Percentage of living cells measured with Annexin V/PI staining and normalized to PBS.

Square brackets hold non-standard residues; d marks the D form. Peptide text beside a SMILES is read from it. Dolaproine = CO[C@@H]([C@@H]1CCCN1)[C@@H](C)C(=O)O; Dil = CC[C@H](C)[C@H](NC)[C@@H](CC(=O)O)OC; NMeV = CN[C@H](C(=O)O)C(C)C

From the text for healthy CD34+ BM cells: as §3

With `CC[C@H](C)[C@@H]([C@@H](CC(=O)N1CCC[C@H]1[C@H](OC)[C@@H](C)C(=O)N[C@@H](Cc1ccccc1)C(=O)O)OC)N(C)C(=O)[C@@H](NC(=O)[C@@H](NC)C(C)C)C(C)C` [MMAF, monomethyl auristatin F] (H-[NMeV]V[Dil][Dolaproine]F-OH), the Cytotoxicity of controls entry in [1] is on record as “no difference in cytotoxicity”.
For the compound `CNC(=O)c1cc(Oc2ccc(NC(=O)Nc3ccc(Cl)c(C(F)(F)F)c3)cc2)ccn1` [Sorafenib], the “FLT3 cell surface expression” value in series [2] is on record as “increase of FLT3 cell surface expression”.
Turning to “deglycosylated IgG1-ADC: IgG1-ADC with N-linked glycans removed”, the “Activity on MOLM-13 cells” value in the series with MOLM-13 cells is on record as “no activity”. Further, the “Anti tumor effect, native and deglycosylated ADCs” value with MOLM-13 xenograft is “only a minimal effect compared to PBS control mice”.
Consider “IgG1-ADC: MMAF conjugated to the IgG1 based antibody palivizumab; CD64 but no FLT3 binding”, for which the Cytotoxicity of controls entry in series [1] is listed as “no cytotoxicity”. Besides, the “IC50, Ba/F3-pMIY-CD64” value in series [3] turned out to be 31.8 ng/ml. In series [4], the “IC50, Ba/F3 expressing both FLT3 and CD64” value stood at 0.0783 µg/mL. Further, the “Anti tumor effect, native and deglycosylated ADCs” value in the series with MOLM-13 xenograft is reported as “reduced compared to native 20D9-ADC”. Further, the “Clonogenic capacity (CFU)” value in the series with healthy CD34+ BM cells is “significantly reduced granulocytic, monocytic and granulocytic-macrophagic colony formation”. For the same compound, the “Differentiation: cell populations of CD34+ cells” value in [5] was “significantly decreased MLPs, CMPs, and GMPs but to a lower extent compared to the 20D9 ADC”. The “Cell viability of CD34+ cells” value in [6] is on record as “significantly decreased cell viability”.

The values are drawn from US20250049939A1, “NOVEL FLT3 ANTIBODIES AND ANTIBODY-DRUG-CONJUGATES BASED THEREON, THERAPEUTIC METHODS AND USES THEREOF IN COMBINATION WITH TYROSINE KINASE INHIBITORS” (TUBULIS GmbH, priority 2021, published 2025).
